From patent publication US20240417734A1, “Methods for Treating Glioblastoma by Targeting Oncomirs” (University of Connecticut, priority 2021, published 2024)

Legend:
intracranial U87 tumors = test: Survival study, intracranial U87 tumors; assay type: in vivo, mice; settings: NPs by CED 6 days post inoculation, TMZ 25 mg/kg i.p.
Experimental: (§1) Animals were anaesthetized using a mixture of ketamine (100 mg/kg) and xylazine (10 mg/kg) via intraperitoneal injection. Anesthetized animals were then placed in a stereotaxic frame and sterilized the scalp with betadine and alcohol. To expose the coronal and sagittal sutures, a midline scalp incision was created, and a burr hole was drilled 2 mm lateral to the sagittal suture and 0.5 mm anterior to the bregma. U87 or G22 cells ([…]) in 3 μL PBS were injected into the right stratum over 3 min using a 10-μL Hamilton syringe. The animal was left 5 min for tissue equilibration before and after infusion. When infusion was finished, the burr hole was filled with bone wax and skin was stapled and cleaned.
(§2) CED in tumor bearing mice was similar to tumor inoculation by reopening the burr hole used for tumor inoculation. A micro-infusion pump (World Precision Instruments) was used to infuse 6 μL of NPs at a rate of […].
(§3) Tumors grew for 6 days before the administration of treatment. Intracranial CED of sγPNA/BNP was conducted following the same surgical procedure as described. TMZ (25 mg/kg) in PBS was administered intraperitoneally on day 7. Animals were monitored daily and weighed every week. […] Total RNA in the tumor and contralateral hemisphere was isolated using mirVana miRNA Isolation Kit and analyzed by real-time PCR detection system as previously described.

U87 cells = test: Cell viability assay, U87; assay type: cell-based, human; settings: BNP 0.5 mg/mL, TMZ 20 μM
Experimental: Cells were seeded in 96-well plates at a density of 5,000 cells/well and treated with increasing concentrations of NP formulations. Cell viability was evaluated by CellTiter-Glo Luminescent Cell Viability Assay (Promega) after 48 h, 72 h treatment. Luminescence was measured using a plate reader (SpectraMax M5) and relative cell viability was normalized to the viability of untreated cells. For TMZ involved combination studies, cells were seeded in 96-well plates at a density of 1,000 cells/well and exposed to sγPNA/NNP and sγPNA/BNP. After 72 h of treatments, NPs were removed and TMZ was added to the wells. Cell viability was measured as described above after 6 days of treatment.

[1] = test system: patient (G22) derived intracranial gliomas; test: Survival study, patient-derived G22 orthotopic tumors; assay type: in vivo, mice; settings: G22 orthotopic model; single dose TMZ 25 mg/kg
Experimental: as §1, §2, §3

With `Cn1nnc2c(C(N)=O)ncn2c1=O` [TMZ, Temozolomide] the Median survival (intracranial U87 tumors) was 81 days, the “Cell viability/100” value (U87 cells) was 0.66 and the viability at 20 µM (U87 cells; Homo sapiens, U-87 MG, read-out: Cell viability (% of control)) was 66%. The Median survival [1] was 79 days.
